Source: patent publication US20110306579A1, “METHODS OF NEUROPROTECTION USING NEUROPROTECTIVE STEROIDS AND A VITAMIN D” (EMORY UNIVERSITY, priority 2009, published 2011)

Key:
[1] = tested on: 20-month old Fischer 344 rats; test: Cerebral edema analysis after cortical contusion brain injury; type: in vivo, rat; settings: 4 mg/kg
Method: The methodology used is described in VanLandingham et al., Neuropharmacology, 2006, 51, 1078-1085.
Sterile surgical procedures were used to prevent animal infection. Rats (20-month old Fischer 344 rats, which are the “human” equivalent of about 60 years old) were anesthetized and maintained on isoflurane and an equivalent amount of […] and O2 for 3 min prior to surgery. After brain contusion, O2 levels were doubled compared to […] and maintained through the reainder of the surgery procedure. A stereotaxic apparatus was used to stabilize the head in a horizontal position. Core body temperature was monitored and maintained at 37° C. using a Harvard homeothermic blanket (Harvard Apparatus, Holliston, Mass.). There was no direct measure used to deterct brain temperature. Blood oxygen and heart rate were maintained using a SurgiVet monitor (SurgiVet, Waukesha, Wis.) and maintained above 90% and 340 bpm respectively. A midline incision was made and the scalp retracted. A bilateral 6-mm craniotomy was performed with surgical drill centered at 3 mm rostral to bregma. The stainless steel impactor was positioned over the MFC at 3.0 mm A/P and 0.0 M/L. These coordinates represent the MFC as described by Paxinos and Watson (The Rat Brain in Stereotaxic Coordinates, Academic Press, San Diego, 1986). The cortical injury was induced using a pneumatically controlled device (Hoffman et al., J. Neurotrauma, 1994, 11, 417-431). Brain impact duration was 0.5 s. using a 5-mm impactor tip with a velocity set at 2.125 m/s and a cortical depth of 2 mm. Following the contusion, bleeding was halded and fascia and scalp were sutured shut. After surgery, animals were allowed to recover from anesthesia on a homeothermic heating blanket in a holding cage until awake. sham surgeries controlled for anesthesia and stress. All surgical procedures were the same, except that sham rates were not given a craniotomy or cortical injury. Previous studies using craniotomy as a control found no differences between shams with or without this procedure. (Goss et al., Pharmacol. Biochem. Behay. 2003, 76(2), 231-242).
These experimental solutions were then diluted 1:1 with sterile water for a final concentration of HBC of 22.5%.
All injections were done at the same time with brain harvesting at 24 h post-injury. Rats in each group were weightd prior to treatment to ensure proper dosage. The first injection at 1 h after surgery was given intraperitoneally to ensure rapid adsorption. All subsequent injections were made subcutaneously for gradual adsorption at 6 and 24 h. Injection times and neurosteroid doses were based on previous results of neurosteroid treatment (Roof et al., Twenty First Annual Meeting of the Society for Neuroscience, Miami Beach Fla., p. 191 and He et al., Exp. Neurol. 2004, 189, 404-412). The sterioids were dissolved in vehicle (22.5% 2-hydroxypropyl-b-cyclodextrin solution) at 4 mg/kg. The sham group received no treatment and injury control group received vehicle only.
At 24 h after traumatic brain injury flresh brains were extracted from the skull and the dorsal cerebrum was separated along the line of the lateral fissure. Four 3-mm coronal sections were cut rostral to caudal, placed in pre-weighed 1.5 mL tubes and re-weighed (wet weight). Tubes were then left uncapped and placed in a vacuum oven set at 60° C. with an atmospheric pressure of 0.3 for 48 h. Following tube recapping, the tissue samples were again weighed (dry weight). Cerebral edema (% water content) was determined as the difference in wet and dry weights divided by wet weight (Roof and Stein Restor. Neurol. Ncurosci., 1992, 4, 425-427). Edema measures are reflective of the difference inwater content between at the average of the two most rostral (injury region) segments and most caudal (occipital cortex) segments of the dorsal sections of the brain.

[2] = tested on: E18 rat primary cortical neurons; test: Morphological analysis of cortical cultures (phase contrast); type: cell-based; settings: glutamate 0.5 μM for 24 h; data not shown
From the text: Changes in the morphology of neurons treated with different drugs in various groups were observed using a phase-contrast microscope (Nikon). Primary cultures were mainly observed for neurite outgrowth, a hallmark feature of healthy cells, and the density of healthy cells in different groups.

CC(=O)[C@H]1CCC2C3CCC4=CC(=O)CC[C@]4(C)C3CC[C@@]21C (stereo partly drawn) [progesterone]
edema compared to subjects treated with vehicle ([1]; 24 hours post brain injury): decrease in edema
mean % difference edema ([1]; brain tissue 24 hours post brain injury, i.p. at 1 h, s.c. at 6 and 24 h): 2.0%
morphology of neurons (neuronal processes, number of neurons) after glutamate [2]: rescued neurons
